{"source": "paper PMC7840908", "about": "(Communications Biology, 2021)", "key": {"[1]": {"biological_target": "T1, MERS-CoV macro domain (Middle East respiratory syndrome-related coronavirus, UniProt K9N638)", "T1 sequence (K9N638 1110-1276 limits assumed)": "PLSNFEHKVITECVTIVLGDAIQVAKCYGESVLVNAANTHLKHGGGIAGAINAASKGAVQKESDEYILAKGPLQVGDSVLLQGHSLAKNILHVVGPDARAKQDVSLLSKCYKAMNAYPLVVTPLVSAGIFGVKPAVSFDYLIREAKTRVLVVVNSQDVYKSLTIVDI", "format": "binding"}, "[2]": {"biological_target": "T1, MERS-CoV macro domain", "format": "binding", "remark": "listed apart in the source"}, "[3]": {"biological_target": "T1, MERS-CoV macro domain", "format": "binding", "remark": "listed apart in the source"}, "[4]": {"biological_target": "T1, MERS-CoV macro domain", "format": "binding", "remark": "listed apart in the source"}, "[5]": {"biological_target": "T1, MERS-CoV macro domain", "format": "biochemical"}}, "note": "“And” between values parts separate entries of the source, which are not always exact repeats. Equal entries are not always repeated.", "data": [{"smiles": "Nc1ncnc2c1ncn2C1OC(COP(=O)(O)OP(=O)(O)OCC2OC(O)C(O)C2O)C(O)C1O", "note": "(stereo not drawn) [ADPR, ADP-ribose]", "values": [{"measurement": "Melting temperature (Tm) of the MERS-CoV macro domain in complex, DSF", "setting": "[1]", "result": 49.0, "unit": "°C"}, {"measurement": "Melting temperature (Tm) of the MERS-CoV macro domain in complex, CD", "setting": "[2]", "result": 48.8, "unit": "°C"}, {"measurement": "entropy contribution", "setting": "[3]", "result": "−9.30 ± 17.61", "unit": "J/mol K"}, {"measurement": "n (stoichiometry of binding)", "setting": "[3]", "result": "1.25 ± 0.08 and 1.20 ± 0.19"}, {"measurement": "NMR CSP, residue 2", "setting": "[4]", "result": 0.05411}, {"measurement": "NMR CSP, residue 3", "setting": "[4]", "result": "0.1983 and 0.2813"}, {"measurement": "NMR CSP, residue 5", "setting": "[4]", "result": 0.069}, {"measurement": "NMR CSP, residue 6", "setting": "[4]", "result": "0.06294 and 0.07046"}, {"measurement": "NMR CSP, residue 7", "setting": "[4]", "result": "0.1539 and 0.09995"}, {"measurement": "NMR CSP, residue 8", "setting": "[4]", "result": "0.1145 and 0.09451"}, {"measurement": "NMR CSP, residue 13", "setting": "[4]", "result": "0.06576 and 0.04291"}, {"measurement": "NMR CSP, residue 15", "setting": "[4]", "result": "0.1078 and 0.09719"}, {"measurement": "NMR CSP, residue 16", "setting": "[4]", "result": "0.1514 and 0.1186"}, {"measurement": "NMR CSP, residue 17", "setting": "[4]", "result": "0.0814 and 0.0623"}, {"measurement": "NMR CSP, residue 18", "setting": "[4]", "result": "0.08432 and 0.05219"}, {"measurement": "NMR CSP, residue 19", "setting": "[4]", "result": "0.3848 and 0.3419"}, {"measurement": "NMR CSP, residue 20", "setting": "[4]", "result": "0.8973 and 0.7322"}, {"measurement": "NMR CSP, residue 22", "setting": "[4]", "result": "0.3525 and 0.4007"}, {"measurement": "NMR CSP, residue 23", "setting": "[4]", "result": 0.383}, {"measurement": "NMR CSP, residue 25", "setting": "[4]", "result": "0.05156 and 0.08317"}, {"measurement": "NMR CSP, residue 26", "setting": "[4]", "result": "0.1992 and 0.1277"}, {"measurement": "NMR CSP, residue 27", "setting": "[4]", "result": 0.03208}, {"measurement": "NMR CSP, residue 28", "setting": "[4]", "result": "0.1376 and 0.09301"}, {"measurement": "NMR CSP, residue 29", "setting": "[4]", "result": "0.03731 and 0.02244"}, {"measurement": "NMR CSP, residue 31", "setting": "[4]", "result": "0.0401 and 0.04027"}, {"measurement": "NMR CSP, residue 32", "setting": "[4]", "result": "0.3295 and 0.3317"}, {"measurement": "NMR CSP, residue 40", "setting": "[4]", "result": 0.1305}, {"measurement": "NMR CSP, residue 42", "setting": "[4]", "result": "0.3421 and 0.2454"}, {"measurement": "NMR CSP, residue 45", "setting": "[4]", "result": 0.9446}, {"measurement": "NMR CSP, residue 46", "setting": "[4]", "result": "1.504 and 1.393"}, {"measurement": "NMR CSP, residue 48", "setting": "[4]", "result": 1.083}, {"measurement": "NMR CSP, residue 49", "setting": "[4]", "result": 0.7736}, {"measurement": "NMR CSP, residue 50", "setting": "[4]", "result": "0.4669 and 0.3863"}, {"measurement": "NMR CSP, residue 51", "setting": "[4]", "result": "0.1048 and 0.1583"}, {"measurement": "NMR CSP, residue 52", "setting": "[4]", "result": "0.2728 and 0.1547"}, {"measurement": "NMR CSP, residue 53", "setting": "[4]", "result": "0.1687 and 0.136"}, {"measurement": "NMR CSP, residue 54", "setting": "[4]", "result": "0.08878 and 0.08252"}, {"measurement": "NMR CSP, residue 55", "setting": "[4]", "result": "0.1049 and 0.106"}, {"measurement": "NMR CSP, residue 56", "setting": "[4]", "result": "0.1546 and 0.1346"}, {"measurement": "NMR CSP, residue 57", "setting": "[4]", "result": "0.138 and 0.07814"}, {"measurement": "NMR CSP, residue 59", "setting": "[4]", "result": "0.122 and 0.1437"}, {"measurement": "NMR CSP, residue 60", "setting": "[4]", "result": "0.1518 and 0.1952"}, {"measurement": "NMR CSP, residue 62", "setting": "[4]", "result": "0.2878 and 0.2628"}, {"measurement": "NMR CSP, residue 63", "setting": "[4]", "result": "0.1045 and 0.05935"}, {"measurement": "NMR CSP, residue 64", "setting": "[4]", "result": "0.3272 and 0.2442"}, {"measurement": "NMR CSP, residue 66", "setting": "[4]", "result": "0.09722 and 0.08557"}, {"measurement": "NMR CSP, residue 67", "setting": "[4]", "result": "0.1931 and 0.1393"}, {"measurement": "NMR CSP, residue 68", "setting": "[4]", "result": "0.02796 and 0.05038"}, {"measurement": "NMR CSP, residue 71", "setting": "[4]", "result": 0.06402}, {"measurement": "NMR CSP, residue 73", "setting": "[4]", "result": 0.05219}, {"measurement": "NMR CSP, residue 74", "setting": "[4]", "result": "0.2006 and 0.1195"}, {"measurement": "NMR CSP, residue 76", "setting": "[4]", "result": "0.3259 and 0.302"}, {"measurement": "NMR CSP, residue 77", "setting": "[4]", "result": "0.2091 and 0.1118"}, {"measurement": "NMR CSP, residue 78", "setting": "[4]", "result": "0.3066 and 0.2179"}, {"measurement": "NMR CSP, residue 79", "setting": "[4]", "result": "0.2231 and 0.1318"}, {"measurement": "NMR CSP, residue 81", "setting": "[4]", "result": "0.02964 and 0.02247"}, {"measurement": "NMR CSP, residue 82", "setting": "[4]", "result": "0.08035 and 0.07748"}, {"measurement": "NMR CSP, residue 88", "setting": "[4]", "result": "0.05214 and 0.02732"}, {"measurement": "NMR CSP, residue 90", "setting": "[4]", "result": "0.03514 and 0.02202"}, {"measurement": "NMR CSP, residue 91", "setting": "[4]", "result": "0.0404 and 0.05921"}, {"measurement": "NMR CSP, residue 92", "setting": "[4]", "result": "0.2456 and 0.1395"}, {"measurement": "NMR CSP, residue 93", "setting": "[4]", "result": "0.4982 and 0.3283"}, {"measurement": "NMR CSP, residue 94", "setting": "[4]", "result": "1.407 and 1.235"}, {"measurement": "NMR CSP, residue 95", "setting": "[4]", "result": "0.4425 and 0.3726"}, {"measurement": "NMR CSP, residue 97", "setting": "[4]", "result": "0.5401 and 0.4521"}, {"measurement": "NMR CSP, residue 100", "setting": "[4]", "result": "0.1106 and 0.08163"}, {"measurement": "NMR CSP, residue 105", "setting": "[4]", "result": 0.06587}, {"measurement": "NMR CSP, residue 106", "setting": "[4]", "result": "0.1936 and 0.1903"}, {"measurement": "NMR CSP, residue 107", "setting": "[4]", "result": "0.1268 and 0.1117"}, {"measurement": "NMR CSP, residue 108", "setting": "[4]", "result": "0.06699 and 0.04787"}, {"measurement": "NMR CSP, residue 110", "setting": "[4]", "result": "0.1341 and 0.1262"}, {"measurement": "NMR CSP, residue 116", "setting": "[4]", "result": "0.02109 and 0.03031"}, {"measurement": "NMR CSP, residue 117", "setting": "[4]", "result": "0.04981 and 0.05032"}, {"measurement": "NMR CSP, residue 120", "setting": "[4]", "result": "0.07982 and 0.07783"}, {"measurement": "NMR CSP, residue 125", "setting": "[4]", "result": "0.9414 and 0.7836"}, {"measurement": "NMR CSP, residue 126", "setting": "[4]", "result": "0.4011 and 0.2956"}, {"measurement": "NMR CSP, residue 127", "setting": "[4]", "result": "0.636 and 0.5379"}, {"measurement": "NMR CSP, residue 131", "setting": "[4]", "result": "0.2256 and 0.1765"}, {"measurement": "NMR CSP, residue 132", "setting": "[4]", "result": 0.8759}, {"measurement": "NMR CSP, residue 133", "setting": "[4]", "result": "0.6064 and 0.6446"}, {"measurement": "NMR CSP, residue 135", "setting": "[4]", "result": "0.1312 and 0.07635"}, {"measurement": "NMR CSP, residue 136", "setting": "[4]", "result": "0.08199 and 0.1121"}, {"measurement": "NMR CSP, residue 137", "setting": "[4]", "result": "0.1059 and 0.1517"}, {"measurement": "NMR CSP, residue 138", "setting": "[4]", "result": "0.1473 and 0.115"}, {"measurement": "NMR CSP, residue 139", "setting": "[4]", "result": "0.07462 and 0.1086"}, {"measurement": "NMR CSP, residue 140", "setting": "[4]", "result": "0.04879 and 0.03054"}, {"measurement": "NMR CSP, residue 141", "setting": "[4]", "result": "0.06216 and 0.08925"}, {"measurement": "NMR CSP, residue 145", "setting": "[4]", "result": "0.2809 and 0.3196"}, {"measurement": "NMR CSP, residue 148", "setting": "[4]", "result": "0.04359 and 0.06607"}, {"measurement": "NMR CSP, residue 149", "setting": "[4]", "result": "0.112 and 0.08955"}, {"measurement": "NMR CSP, residue 150", "setting": "[4]", "result": "0.04 and 0.03962"}, {"measurement": "NMR CSP, residue 152", "setting": "[4]", "result": "0.255 and 0.1438"}, {"measurement": "NMR CSP, residue 153", "setting": "[4]", "result": "0.3264 and 0.2803"}, {"measurement": "NMR CSP, residue 154", "setting": "[4]", "result": "0.8835 and 0.7254"}, {"measurement": "NMR CSP, residue 155", "setting": "[4]", "result": "0.3976 and 0.2797"}, {"measurement": "NMR CSP, residue 156", "setting": "[4]", "result": 0.2021}, {"measurement": "NMR CSP, residue 157", "setting": "[4]", "result": "0.1187 and 0.09085"}, {"measurement": "NMR CSP, residue 158", "setting": "[4]", "result": "0.04463 and 0.03077"}, {"measurement": "NMR CSP, residue 162", "setting": "[4]", "result": "0.06097 and 0.0557"}, {"measurement": "NMR CSP, residue 163", "setting": "[4]", "result": "0.2144 and 0.1623"}, {"measurement": "NMR CSP, residue 164", "setting": "[4]", "result": "0.08089 and 0.05482"}, {"measurement": "Effect on MAR signals in the deMAR reaction", "setting": "[5]", "result": "the MAR signals reduced fewer"}]}]}
